The structures appear in SMILES notation.

This is an account of results in patent US9029389B2 (Institut Pasteur Korea, priority 2011, dated 2015).

This assay addresses T1, Human 5-lipoxygenase (Homo sapiens, UniProt P09917).
T1 construct: purchased Cayman 60402; host or cells: insect cells
T1 sequence (P09917 1-674): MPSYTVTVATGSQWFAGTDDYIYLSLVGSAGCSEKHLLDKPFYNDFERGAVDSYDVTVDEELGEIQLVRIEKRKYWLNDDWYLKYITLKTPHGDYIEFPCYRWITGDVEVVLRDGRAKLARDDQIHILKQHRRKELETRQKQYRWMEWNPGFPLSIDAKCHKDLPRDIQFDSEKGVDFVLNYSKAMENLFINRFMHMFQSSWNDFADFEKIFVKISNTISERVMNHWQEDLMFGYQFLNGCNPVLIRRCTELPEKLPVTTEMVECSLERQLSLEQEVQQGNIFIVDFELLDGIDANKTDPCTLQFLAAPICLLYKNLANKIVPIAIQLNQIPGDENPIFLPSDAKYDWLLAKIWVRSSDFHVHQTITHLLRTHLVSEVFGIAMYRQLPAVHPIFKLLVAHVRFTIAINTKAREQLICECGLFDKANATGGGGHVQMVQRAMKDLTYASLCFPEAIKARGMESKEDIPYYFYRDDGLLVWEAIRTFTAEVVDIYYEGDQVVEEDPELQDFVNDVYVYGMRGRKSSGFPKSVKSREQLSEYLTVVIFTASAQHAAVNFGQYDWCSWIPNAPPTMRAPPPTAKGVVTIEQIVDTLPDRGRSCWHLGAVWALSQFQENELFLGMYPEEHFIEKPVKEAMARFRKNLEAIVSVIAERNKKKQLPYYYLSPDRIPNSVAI
The assay can be described thus: Activity of compounds against 5-LO enzyme (LTB4 measurement and/or fluorescence method). Type of assay: biochemical. As to conditions: for inhibition at 10 µM: 5-LO, single concentration of 10 uM in duplicate; for IC50: 6 or 11 point dose response in duplicate. The protocol: The activity of compounds against 5-LO were determined by measuring LTB4 (leukotriene B4) levels and/or by a fluorescence method. Both approaches are outlined in more detail below;
Human 5-lipoxygenase (Cayman, Cat#60402) produced in insect cells was pre-incubated with compound for 15 min at RT in incubation buffer (50 mM Tris-Cl, pH 7.4, 2 mM CaCl2, 0.1 mM ATP, 1% DMSO). The enzymatic reaction was started by adding arachidonic acid to a final concentration of 3 uM. After 5 min of incubation at 37° C., the reaction was stopped by heatinactivation at 80° C. for 5 min. LTB4 levels were quantified by using LTB4 EIA kit (Cayman, Cat#520111) as instructed and/or LTB4 levelswere measured with LC/MS/MS using Quattro Premier™ XE tandem quadrupole mass spectrometer equipped with Acquity UPLC system (Waters, Milford, Mass.). The method was slightly modified as reported previously (Zweifel et al., 2008, Willey et al., 2008, Chappell et al, 2011). Briefly, chromatographic separation was carried out with Acquity UPLC BEH Shield RP18 Column (2.1 mm×50 mm, 1.7 μm particle size, Waters, Milford, Mass.). Sample injection volume was 10 μl, the column temperature was 35° C., the mobile phase A consisted of water with 0.1% formic acid and the mobile phase B consisted of acetonitrile with 0.1% formic acid. Flow rate was 0.4 mL/min and the gradient condition was as follows.
Relative quantification of LTB4 and LTB4-d4 (Internal Standard) was done using multi reaction monitoring (MRM) of the transitions of m/z 335→195 for LTB4, 339→197 for LTB4-d4 in electrospray ionization (ESI) negative mode. Desolvation temperature was 400° C., source temperature was 130° C. Capillary voltage, cone voltage, and collision voltage were 3.5 kV, 30V, and 20 eV, respectively. Nitrogen was used for desolvation (750 L/h) and cone (50 L/h) gas. Argon was used for collision gas (0.22 ml/min). The dwell time was 10 ms.
Besides the two methods quantifying LTB4 level, a fluorescence assay measuring 5-HpETE was introduced for high-throughput screening in a 384 well microplate format (Pufahl et al., 2007). For nonspecific ester cleavage of the acetate groups in H2DCFDA, the insect cell lysate expressing human 5-LO (Cayman Cat#60402) was incubated with H2DCFDA (50 mM Tris-Cl, pH 7.5, 2 mM CaCl2, 20 uM H2DCFDA, 500 mU 5-LO per reaction) for 5 minutes. Compound and enzyme mixture were pre-incubated for 5 minutes, and the enzymatic reaction was initiated by addition of ATP and arachidonic acid to a final concentration of 100 uM and 3 uM, respectively. After 5 minutes of incubation, the fluorescence was measured using Spectramax M5 (Molecular Device, Ex/Em=485 nm/530 nm). All steps were carried out at room temperature.
A total of 378 compounds were initially tested at a single concentration of 10 uM in duplicate with the results summarized in Table 1. From these 378 compounds, 53 compounds plus an additional 25 were selected for confirmation of activity by 6 or 11 point dose response in duplicate with the corresponding IC50 values outlined in Table 2.

As to `Cc1nc2cccc(C)n2c1C(=O)NCc1ccccc1` [compound 34, N-Benzyl-2,5-dimethylimidazo[1,2-a]pyridine-3-carboxamide], the inhibition at 10 µM lay within 40 to 69%. On to `Cc1nc2c(F)cccn2c1C(=O)NCc1ccccc1` [compound 35, N-Benzyl-8-fluoro-2-methylimidazo[1,2-a]pyridine-3-carboxamide], for which the inhibition at 10 µM was < 40%. For the compound `Cc1nc2c(C(F)(F)F)cccn2c1C(=O)NCc1ccccc1` [compound 36, N-Benzyl-2-methyl-8-(trifluoromethyl)imidazo[1,2-a]pyridine-3-carboxamide], the inhibition at 10 µM is < 40%. On the same count and under the same terms, the result for `CCCc1nc2ccccn2c1C(=O)NCc1ccccc1` [compound 37, N-Benzyl-2-propylimidazo[1,2-a]pyridine-3-carboxamide] reads < 40%; that for `O=C(NCc1ccccc1)c1c(C2CC2)nc2ccccn12` [compound 38, N-Benzyl-2-cyclopropylimidazo[1,2-a]pyridine-3-carboxamide], < 40%; that for `Cc1nc2ccc(-c3ccccc3)cn2c1C(=O)NCc1ccccc1` [compound 39, N-Benzyl-2-methyl-6-phenylimidazo[1,2-a]pyridine-3-carboxamide], < 40%. Consider `Cc1nc2ccc(F)cn2c1C(=O)NCc1ccccc1` [compound 40, N-Benzyl-6-fluoro-2-methylimidazo[1,2-a]pyridine-3-carboxamide], for which the inhibition at 10 µM is < 40%.

With `Cc1nc2ccccn2c1NC(=O)Cc1ccccc1` [compound 41, N-(2-Methylimidazo[1,2-a]pyridin-3-yl)-2-phenylacetamide], the inhibition at 10 µM was < 40%. The same measure, in the same setting: the result for `Cc1nc2cc(C#N)ccn2c1C(=O)NCc1ccccc1` [compound 42, N-Benzyl-7-cyano-2-methylimidazo[1,2-a]pyridine-3-carboxamide] reads < 40%; that for `Cc1nc2ccc(Cl)cn2c1C(=O)NCc1ccc(-c2ccccc2)cc1` [compound 43, N-(Biphenyl-4-ylmethyl)-6-chloro-2-methylimidazo[1,2-a]pyridine-3-carboxamide], < 40%. The same measure, in the same setting: under `Cc1nc2cc(Cl)ccn2c1C(=O)NCc1ccc(-c2ccccc2)cc1` [compound 44, N-(Biphenyl-4-ylmethyl)-7-chloro-2-methylimidazo[2-a]pyridine-3-carboxamide] stands < 40%; under `CCc1nc2ccccn2c1C(=O)NCc1ccc(Oc2ccccc2)cc1` [compound 45, 2-Ethyl-N-(4-phenoxybenzyl)imidazo[1,2-a]pyridine-3-carboxamide], < 40%. For `CCCc1nc2ccccn2c1C(=O)NCc1ccc(-c2ccccc2)cc1` [compound 46, N-(Biphenyl-4-ylmethyl)-2-propylimidazo[1,2-a]pyridine-3-carboxamide], the inhibition at 10 µM is 40 to 69%.

`Cc1nc2c(C#N)cccn2c1C(=O)NCc1ccccc1` [compound 47, N-Benzyl-8-cyano-2-methylimidazo[1,2-a]pyridine-3-carboxamide]: the inhibition at 10 µM is < 40%. Same read-out and setting: the result for `Cc1nc2c(O)cccn2c1C(=O)NCc1ccccc1` [compound 48, N-Benzyl-8-hydroxy-2-methylimidazo[1,2-a]pyridine-3-carboxamide] reads < 40%.

Consider `CCc1nc2ccccn2c1C(=O)NCc1ccc(C(C)(C)C)cc1` [compound 49, N-(4-tert-Butylbenzyl)-2-ethylimidazo[1,2-a]pyridine-3-carboxamide], for which the inhibition at 10 µM is < 40%. Still for that read-out and setting: under `CCc1nc2ccccn2c1C(=O)NCc1ccc2c(ccn2C)c1` [compound 50, 2-Ethyl-N-((1-methyl-1H-indol-5-yl)methyl)imidazo[1,2-a]pyridine-3-carboxamide] stands < 40%; under `CCc1nc2ccccn2c1C(=O)NCc1ccc(OC(F)(F)F)cc1` [compound 51, 2-Ethyl-N-(4-(trifluoromethoxy)benzyl)imidazo[1,2-a]pyridine-3-carboxamide], < 40%. Regarding `CCc1nc2ccccn2c1C(=O)NCc1ccc(OC(C)C)cc1` [compound 53, 2-Ethyl-N-(4-isopropoxybenzyl)imidazo[1,2-a]pyridine-3-carboxamide], the inhibition at 10 µM was < 40%. As to `CCc1nc2ccccn2c1C(=O)NCc1ccc(OCC(C)C)cc1` [compound 54, 2-Ethyl-N-(4-isobutoxybenzyl)imidazo[1,2-a]pyridine-3-carboxamide], the inhibition at 10 µM was < 40%. Regarding `CCc1nc2ccc(Cl)cn2c1C(=O)NCc1ccc(OC(F)(F)F)cc1` [compound 55], the inhibition at 10 µM lay in the range of 40 to 69% and the IC50 lay in the range of 1 to 20 µM. Take `CCc1nc2cc(Cl)ccn2c1C(=O)NCc1ccc(-c2ccc(F)cc2)cc1` [compound 56, 7-Chloro-2-ethyl-N-((4′-fluorobiphenyl-4-yl)methyl)imidazo[1,2-a]pyridine-3-carboxamide]: the inhibition at 10 µM was < 40%. Same read-out and setting: under `CCc1nc2ccc(C)cn2c1C(=O)NCc1ccc(-c2ccccc2)cc1` [compound 57, N-(Biphenyl-4-ylmethyl)-2-ethyl-6-methylimidazo[1,2-a]pyridine-3-carboxamide] stands 40 to 69%.

With `CCc1nc2ccc(C)cn2c1C(=O)NCc1ccc(Oc2ccccc2)cc1` [compound 58, 2-Ethyl-6-methyl-N-(4-phenoxybenzyl)imidazo[1,2-a]pyridine-3-carboxamide], the inhibition at 10 µM was > 69% and the IC50 was 1 to 20 µM. The compound `CCc1nc2ccc(C)cn2c1C(=O)NCc1ccc(OC(F)(F)F)cc1` [compound 59, 2-Ethyl-6-methyl-N-(4-(trifluoromethoxy)benzyl)imidazo[1,2-a]pyridine-3-carboxamide] returned an inhibition at 10 µM of 40 to 69%. The same measure, in the same setting: the result for `CCc1nc2ccc(C)cn2c1C(=O)NCc1ccc2ccn(C)c2c1` [compound 60, 2-Ethyl-6-methyl-N-((1-methyl-1H-indol-6-yl)methyl)imidazo[1,2-a]pyridine-3-carboxamide] reads 40 to 69%. For `CCc1nc2ccc(Cl)cn2c1C(=O)NCc1ccc(Oc2ccccc2)cc1` [compound 62], the inhibition at 10 µM was < 40%. Still for that read-out and setting: the result for `CCc1nc2ccc(Cl)cn2c1C(=O)NCc1ccc(C(C)(C)C)cc1` [compound 63] reads 40 to 69%; that for `CCc1nc2ccc(Cl)cn2c1C(=O)NCc1ccc(N2CCOCC2)cc1` [compound 64], < 40%; that for `CCc1nc2ccc(Cl)cn2c1C(=O)NCc1ccc(OC(C)C)cc1` [compound 65], < 40%. Still for that read-out and setting: the result for `CCc1nc2ccc(Cl)cn2c1C(=O)NCc1ccc(OCC(C)C)cc1` [compound 66] reads < 40%; that for `CCc1nc2ccc(Cl)cn2c1C(=O)NCc1ccc2c(ccn2C)c1` [compound 67], < 40%; that for `CCc1nc2ccc(Cl)cn2c1C(=O)NCc1ccc2ccn(C)c2c1` [compound 68], < 40%.
